# Source: the supplement of paper PMC10307832
# Experiments:
# Assay in all cases: relative viability (nuclei count vs DMSO), 5 days (fraction); higher = more cells survive
# [1] = system: NCI-H650
# Summary of the method: (§1)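 Relative viability divides the nuclei count in treated wells by that in vehicle wells. Lung cancer cell lines were seeded in 1536-well plates, dosed by pin tool the next day, and fixed and stained after 5 days in one step with final 0.05% Triton X-100, 1% formaldehyde and 1 ug/ml Hoechst. Dosing was a single drug or a fixed anchor-drug dose plus five library-drug doses (not always all listed) in √10 steps, and values are medians of duplicate plates imaged at 4×.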
# [2] = system: NCI-H522
# Summary of the method: as §1
# [3] = system: NCI-H727
# Summary of the method: as §1
# [4] = system: NCI-H596
# Summary of the method: as §1
# [5] = system: NCI-H1395
# Summary of the method: as §1
# [6] = system: EMC-BAC-2
# Summary of the method: as §1
# [7] = system: NCI-H23
# Summary of the method: as §1
# [8] = system: NCI-H2347
# Summary of the method: as §1
# [9] = system: NCI-H2087
# Summary of the method: as §1
# [10] = system: NCI-H2023
# Summary of the method: as §1
# [11] = system: BEN
# Summary of the method: as §1
# [12] = system: NCI-H1993
# Summary of the method: as §1
# [13] = system: NCI-H647
# Summary of the method: as §1
# [14] = system: HARA
# Summary of the method: as §1
# [15] = system: NCI-H838
# Summary of the method: as §1
# [16] = system: 201T
# Summary of the method: as §1
# [17] = system: NCI-H441
# Summary of the method: as §1
# [18] = system: NCI-H1666
# Summary of the method: as §1
# [19] = system: NCI-H2126
# Summary of the method: as §1
# [20] = system: NCI-H2009
# Summary of the method: as §1
# [21] = system: LOU-NH91
# Summary of the method: as §1
# [22] = system: NCI-H3122
# Summary of the method: as §1
# [23] = system: LCLC-103H
# Summary of the method: as §1
compound,measurement,setting,value
CC(C)Oc1cc(Nc2nc(N[C@@H](C)c3ccc(F)cn3)ncc2Cl)n[nH]1 [AZ23] + Cc1nc(Nc2ncc(C(=O)Nc3c(C)cccc3Cl)s2)cc(N2CCN(CCO)CC2)n1 [Dasatinib] (partner 0.075 µM),relative viability,[1]; first compound 0.01 µM,0.441
same,relative viability,[1]; first compound 0.03162 µM,0.46
same,relative viability,[1]; first compound 0.3162 µM,0.48
same,relative viability,[2]; first compound 0.01 µM,0.716
same,relative viability,[2]; first compound 0.03162 µM,0.933
same,relative viability,[2]; first compound 0.3162 µM,1.02
same,relative viability,[3]; first compound 0.01 µM,0.393
same,relative viability,[3]; first compound 0.03162 µM,0.402
same,relative viability,[3]; first compound 0.3162 µM,0.362
same,relative viability,[4]; first compound 0.01 µM,0.52
same,relative viability,[4]; first compound 0.03162 µM,0.616
same,relative viability,[4]; first compound 0.3162 µM,0.557
same,relative viability,[5]; first compound 0.03162 µM,0.481
same,relative viability,[5]; first compound 0.3162 µM,0.359
same,relative viability,[6]; first compound 0.01 µM,0.308
same,relative viability,[6]; first compound 0.03162 µM,0.381
same,relative viability,[6]; first compound 0.3162 µM,0.364
same,relative viability,[7]; first compound 0.03162 µM,0.883
same,relative viability,[7]; first compound 0.3162 µM,0.761
same,relative viability,[8]; first compound 0.01 µM,0.235
same,relative viability,[8]; first compound 0.03162 µM,0.298
same,relative viability,[8]; first compound 0.3162 µM,0.274
same,relative viability,[9]; first compound 0.01 µM,1.29
same,relative viability,[9]; first compound 0.03162 µM,1.04
same,relative viability,[9]; first compound 0.3162 µM,0.751
same,relative viability,[10]; first compound 0.03162 µM,0.627
same,relative viability,[10]; first compound 0.3162 µM,0.57
same,relative viability,[11]; first compound 0.01 µM,0.309
same,relative viability,[11]; first compound 0.03162 µM,0.398
same,relative viability,[11]; first compound 0.3162 µM,0.304
same,relative viability,[12]; first compound 0.01 µM,0.501
same,relative viability,[12]; first compound 0.03162 µM,0.613
same,relative viability,[12]; first compound 0.3162 µM,0.522
same,relative viability,[13]; first compound 0.01 µM,0.174
same,relative viability,[13]; first compound 0.03162 µM,0.215
same,relative viability,[13]; first compound 0.3162 µM,0.17
same,relative viability,[14]; first compound 0.03162 µM,0.37
same,relative viability,[14]; first compound 0.3162 µM,0.217
same,relative viability,[15]; first compound 0.01 µM,0.255
same,relative viability,[15]; first compound 0.03162 µM,0.317
same,relative viability,[15]; first compound 0.3162 µM,0.293
same,relative viability,[16]; first compound 0.01 µM,0.506
same,relative viability,[16]; first compound 0.03162 µM,0.614
same,relative viability,[16]; first compound 0.3162 µM,0.569
same,relative viability,[17]; first compound 0.01 µM,0.683
same,relative viability,[17]; first compound 0.03162 µM,0.745
same,relative viability,[17]; first compound 0.3162 µM,0.699
same,relative viability,[18]; first compound 0.01 µM,0.891
same,relative viability,[18]; first compound 0.03162 µM,0.927
same,relative viability,[18]; first compound 0.3162 µM,0.809
same,relative viability,[19]; first compound 0.01 µM,0.573
same,relative viability,[19]; first compound 0.03162 µM,0.715
same,relative viability,[19]; first compound 0.3162 µM,0.56
same,relative viability,[20]; first compound 0.01 µM,0.278
same,relative viability,[20]; first compound 0.03162 µM,0.341
same,relative viability,[20]; first compound 0.3162 µM,0.279
same,relative viability,[21]; first compound 0.01 µM,0.565
same,relative viability,[21]; first compound 0.03162 µM,0.589
same,relative viability,[21]; first compound 0.3162 µM,0.551
same,relative viability,[22]; first compound 0.01 µM,0.946
same,relative viability,[22]; first compound 0.03162 µM,0.831
same,relative viability,[22]; first compound 0.3162 µM,0.856
same,relative viability,[23]; first compound 0.01 µM,0.443
same,relative viability,[23]; first compound 0.03162 µM,0.576
same,relative viability,[23]; first compound 0.3162 µM,0.499
